Experimental data from US20130116277A1, “ALDO-KETO REDUCTASE SUBFAMILY 1C3 (AKR1C3) INHIBITORS” (priority 2007, published 2013).
Several values for one entry are separate records, joined by “and”; a condition that tells them apart may be missing. Equal values may be shown once. Read-outs that look alike come from different tables or passages of the source.

Experiments:
[1] = target: T1, ER-α (Homo sapiens, UniProt P03372); assay: ER-α ligand binding domain competitive binding with [3H]Estradiol
T1 sequence (P03372 311-547 limits assumed): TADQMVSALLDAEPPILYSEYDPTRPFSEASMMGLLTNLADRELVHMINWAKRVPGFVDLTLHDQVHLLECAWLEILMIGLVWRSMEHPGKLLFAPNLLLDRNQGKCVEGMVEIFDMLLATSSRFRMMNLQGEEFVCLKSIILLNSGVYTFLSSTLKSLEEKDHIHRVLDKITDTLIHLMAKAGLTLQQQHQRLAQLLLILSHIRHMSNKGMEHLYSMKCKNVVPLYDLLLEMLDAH

[2] = target: ER-β (Homo sapiens, UniProt Q92731); assay: ER-β ligand binding domain competitive binding with [3H]Estradiol
[3] = target: T2, ER-alpha (Homo sapiens, UniProt P03372); assay: ER-alpha transactivation (ERE-LUC luciferase) in HEK-293 cells; assay type: cell-based; settings: for EC50: agonist mode, drug alone, read-out: Agonist ER-α; for IC50: antagonist mode, in combination with estradiol, read-out: Antagonist ER-α;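 as to all read-outs here: HEK-293 cells co-transfected with an ER-alpha expression plasmid, an ERE-driven firefly luciferase reporter and a CMV Renilla control, with the firefly signal normalized to Renilla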
T2 construct: expressed in transfected cells; host or cells: HEK-293
T2 sequence (P03372 1-595): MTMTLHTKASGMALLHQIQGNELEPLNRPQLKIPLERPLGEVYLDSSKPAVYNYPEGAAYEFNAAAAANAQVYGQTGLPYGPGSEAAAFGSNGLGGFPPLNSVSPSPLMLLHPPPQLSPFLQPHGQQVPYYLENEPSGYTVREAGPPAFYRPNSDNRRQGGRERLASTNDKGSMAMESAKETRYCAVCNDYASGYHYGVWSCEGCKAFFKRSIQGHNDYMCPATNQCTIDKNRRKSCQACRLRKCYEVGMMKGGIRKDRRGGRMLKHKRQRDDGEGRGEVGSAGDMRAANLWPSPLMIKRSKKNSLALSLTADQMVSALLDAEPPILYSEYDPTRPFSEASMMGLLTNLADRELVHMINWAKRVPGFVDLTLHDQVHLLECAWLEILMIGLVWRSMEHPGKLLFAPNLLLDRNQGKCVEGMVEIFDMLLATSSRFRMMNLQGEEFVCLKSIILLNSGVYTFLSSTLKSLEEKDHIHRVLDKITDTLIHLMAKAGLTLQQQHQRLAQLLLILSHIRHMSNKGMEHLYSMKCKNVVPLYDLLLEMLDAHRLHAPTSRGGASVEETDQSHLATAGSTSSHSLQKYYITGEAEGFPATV

[4] = target: T3, ER-beta (Homo sapiens, UniProt Q92731); assay: ER-beta transactivation (ERE-LUC luciferase) in HEK-293 cells; assay type: cell-based; settings: for EC50: agonist mode, drug alone, read-out: Agonist ER-β; for IC50: antagonist mode, in combination with estradiol, read-out: Antagonist ER-β;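 as to all read-outs here: HEK-293 cells transiently transfected with an ER-β expression plasmid and ERE-LUC reporter, firefly luciferase read-out normalized to co-transfected Renilla luciferase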
T3 construct: expressed in transfected cells; host or cells: HEK-293

[5] = target: T4, AKR1C3 (Homo sapiens, UniProt P42330); assay: cell-based
T4 sequence (P42330 1-323): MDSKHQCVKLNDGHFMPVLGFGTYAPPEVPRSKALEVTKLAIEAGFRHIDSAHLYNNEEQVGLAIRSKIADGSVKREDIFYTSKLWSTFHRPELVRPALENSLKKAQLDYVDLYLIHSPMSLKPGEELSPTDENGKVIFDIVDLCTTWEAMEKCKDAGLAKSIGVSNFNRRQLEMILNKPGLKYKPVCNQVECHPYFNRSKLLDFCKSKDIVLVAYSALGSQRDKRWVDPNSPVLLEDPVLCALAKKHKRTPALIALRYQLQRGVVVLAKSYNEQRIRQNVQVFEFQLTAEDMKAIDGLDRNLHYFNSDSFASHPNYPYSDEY

[6] = target: T4, AKR1C3
[7] = Liver microsome incubation (HLM Phase I and Phase I + II), LC-MS/MS; assay type: in vitro ADME, human; settings: for microsomal CLint: human, human liver microsomes
Experimental: Stock solutions of prespective AKR1C3 inhibitors were prepared in DMSO at 5 mM and were incubated with liver microsomes (0.1 mg/mL). Incubations were conducted at 37° C. in a shaking water bath for 10 minutes (microsomes). Incubation durations were selected based on time course study (microsomes) or published literature (recombinant enzymes). Prepared samples were analyzed using LC-MS/MS.

[8] = target: T4, AKR1C3; assay: Purified AKR1C3 enzyme assay, [14C]-A'dione to testosterone, TLC based; assay type: biochemical; design: GST (N); made in house; host or cells: bacterial culture, IPTG induced (E. coli BL21-DE3 is named only for the crystallography preparation)
Experimental: Perkin Elmer; […] American Radiolabeled Chemicals, St. Louis, Mo.). The reaction was stopped by the addition of 400 μl ethyl acetate, vortexed, and spun for […] at 2000 rpm. The upper layer was transferred to a new tube and air dried. The pellet was resuspended in 25 μl of methanol, spotted on TLC plates and fractionated in TLC chamber with 3:1 chloroform:ethyl acetate. Once the mobile phase reached the top, the plates were dried and exposed to a phosphoimager screen overnight. […] Perkin Elmer) was incubated at 37° C. for 60 min. The reaction was stopped by the addition of 400 μl ethyl acetate, vortexed, and spun for […] at 2000 rpm. The upper layer was transferred to a new tube and air dried. The pellet was resuspended in 25 μl of methanol, spotted on TLC plates and fractionated in TLC chamber with 3:1 chloroform:ethyl acetate. Once the mobile phase reached the top, the plates were dried and exposed to a phosphoimager screen overnight.

[9] = target: T4, AKR1C3; settings: 100 nM androstenedione, 24 hrs, LC-MS/MS (FIG. 2)
[10] = HLM Phase I + II, read-out: HLM Phase I + II CLint
[11] = HLM Phase I, read-out: HLM Phase I CLint
[12] = 10 μM inhibitor, purified AKR1C3 TLC based enzyme assay, read-out: AKR1C3 inhibition at 10 μM
[13] = read-out: % inhibition from control HSD-5 (10 uM)

T3 sequence (Q92731 whole entry, species assumed): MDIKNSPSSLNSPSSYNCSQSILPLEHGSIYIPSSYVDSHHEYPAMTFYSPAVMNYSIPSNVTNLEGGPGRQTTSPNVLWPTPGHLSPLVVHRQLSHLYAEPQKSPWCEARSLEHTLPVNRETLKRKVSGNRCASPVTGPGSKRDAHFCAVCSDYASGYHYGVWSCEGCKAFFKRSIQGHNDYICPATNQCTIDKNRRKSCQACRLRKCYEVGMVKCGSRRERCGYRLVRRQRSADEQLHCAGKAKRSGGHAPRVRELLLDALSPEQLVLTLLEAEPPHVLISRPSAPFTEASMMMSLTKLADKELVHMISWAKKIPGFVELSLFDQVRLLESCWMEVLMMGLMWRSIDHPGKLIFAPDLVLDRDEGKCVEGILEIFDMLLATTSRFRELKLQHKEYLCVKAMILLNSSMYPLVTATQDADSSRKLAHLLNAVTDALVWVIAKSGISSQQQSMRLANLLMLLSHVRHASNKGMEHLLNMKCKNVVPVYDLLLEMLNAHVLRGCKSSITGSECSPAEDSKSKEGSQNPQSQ
Chain of ER-β (Q92731 264-498 limits assumed, species assumed): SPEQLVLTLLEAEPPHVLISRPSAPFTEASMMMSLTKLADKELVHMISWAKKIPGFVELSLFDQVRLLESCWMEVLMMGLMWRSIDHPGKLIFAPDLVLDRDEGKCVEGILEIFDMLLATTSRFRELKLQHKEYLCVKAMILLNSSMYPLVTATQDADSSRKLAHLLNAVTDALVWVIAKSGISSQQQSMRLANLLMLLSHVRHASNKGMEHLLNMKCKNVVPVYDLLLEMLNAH

Row | Ki [1] | Ki [2] | EC50 [3] | IC50 [3] | EC50 [4] | IC50 [4] | IC50 [5] | HLM Phase I CLint ([7]; HLM Phase I) | HLM Phase I + II CLint ([7]; HLM Phase I + II) | HLM Phase I + II T-1/2 ([7]; HLM Phase I + II) | microsomal CLint [7, 10] | microsomal CLint [7, 11] | inhibition at 10 µM [8, 12] | inhibition at 10 µM [8, 13] | Inhibition of AKR1C3 dependent conversion of androstenedione to testosterone [9] | Structure (SMILES) | IC50 [6] | HLM Phase I T-1/2 ([7]; HLM Phase I)
1 | > 1510 nM | > 2200 nM | > 10000 nM | > 10000 nM | > 10000 nM | > 10000 nM | 1320 nM | – | – | – | – | – | – | – | – | O=c1c2ccc(O)cc2c(-c2ccc(O)cc2)cn1-c1ccc(CO)cc1 [Compound 14, 6-hydroxy-2-(4-(hydroxymethyl)phenyl)-4-(4-hydroxyphenyl)isoquinolin-1(2H)-one] | – | –
2 | – | – | – | – | – | – | – | – | – | – | – | – | – | – | – | COc1ccc(C=CC(=O)O)cc1OC [3,4,dimethoxy cinnamic acid] | > 10000 nM | –
3 | > 1510 nM | 157 nM | > 10000 nM | > 10000 nM | > 10000 nM | 677 nM | 451 nM | 0.8 µL/min/mg | 19.1 µL/min/mg | 40 min and 36.12 min | 17 µL/min/mg | < 1 µL/min/mg | 52% | 52% | – | O=c1c2ccc(O)cc2c(-c2ccc(C(F)(F)F)cc2)cn1-c1ccc(O)cc1 [Compound 13, 6-hydroxy-2-(4-hydroxyphenyl)-4-(4-(trifluoromethyl)phenyl)isoquinolin-1(2H)-one] | – | –
4 | > 1510 nM | > 2200 nM | > 10000 nM | > 10000 nM | > 10000 nM | > 10000 nM | 289 nM | – | – | – | – | – | 50% | 50% | – | O=c1c2ccc(O)cc2c(-c2ccc(C(F)(F)F)cc2)cn1-c1ccc(CBr)c(O)c1 [Compound 26, 2-(4-(bromomethyl)-3-hydroxyphenyl)-6-hydroxy-4-(4-(trifluoromethyl)phenyl)isoquinolin-1(2H)-one] | – | –
5 | > 1510 nM | 613 nM | – | – | – | – | 1710 nM | – | – | – | – | – | – | – | – | O=C(O)/C=C/c1cn(-c2ccc(O)cc2)c(=O)c2c(O)cc(O)cc12 [Compound 15l, (E)-3-(6,8-dihydroxy-2-(4-hydroxyphenyl)-1-oxo-1,2-dihydroisoquinolin-4-yl)acrylic acid] | – | –
6 | > 1510 nM | > 2200 nM | > 10000 nM | > 10000 nM | > 10000 nM | > 10000 nM | – | – | – | 7.9 min | 88.1 µL/min/mg | 6.8 µL/min/mg | 30% | 30% | – | O=c1c2ccc(O)cc2c(-c2ccc(C(F)(F)F)cc2)cn1-c1ccc(C(F)(F)F)cc1 [Compound 30, 6-hydroxy-2,4-bis(4-(trifluoromethyl)phenyl)isoquinolin-1(2H)-one] | – | 102.3 min
7 | – | – | – | – | – | – | – | – | – | – | – | – | – | – | potently inhibited | NC(=O)c1ccc(-n2cc(-c3ccc(C(F)(F)F)c(F)c3)c3cc(O)ccc3c2=O)cc1 [Compound 215, 4-(4-(3-fluoro-4-(trifluoromethyl)phenyl)-6-hydroxy-1-oxoisoquinolin-2(1H)-yl)benzamide] | – | –

Row | Structure (SMILES) | Ki [1] | Ki [2] | EC50 [3] | IC50 [3] | EC50 [4] | IC50 [4] | IC50 [5] | HLM Phase I CLint ([7]; HLM Phase I) | HLM Phase I + II CLint ([7]; HLM Phase I + II) | HLM Phase I + II T-1/2 ([7]; HLM Phase I + II) | microsomal CLint [7, 10] | microsomal CLint [7, 11] | inhibition at 10 µM [8, 12] | inhibition at 10 µM [8, 13] | Inhibition of AKR1C3 dependent conversion of androstenedione to testosterone [9] | IC50 [6] | HLM Phase I T-1/2 ([7]; HLM Phase I)
8 | COc1ccc(-c2cn(-c3ccc(O)cc3)c(=O)c3ccc(O)cc23)cc1 [Compound 15b] | 2100 nM | 252 nM | > 10000 nM | > 10000 nM | > 10000 nM | 128 nM | – | – | – | 3.7 min | 188 µL/min/mg | 24.5 µL/min/mg | – | 47% | – | – | 28.3 min
